Assay results taken from patent publication US20140341916A1, “THERAPEUTIC COMBINATIONS AND METHODS OF TREATING MELANOMA” (Genentech, Inc., priority 2011, published 2014).

Key:
A2058 = assay: In vitro killing of A2058 by RG7204 (data not shown); assay type: cell-based, human
ETBR transcript [1] = assay: PD study, ETBR transcript in COLO 829 tumors, Taqman, normalized to GAPDH; assay type: in vivo, mice; settings: RG7204 10 mpk or 30 mpk twice a day for 3 days
Method: (§1) A2058 or COLO 829 tumors were grown to an average size of approximately 200 mm^3, whereupon animals were randomized into groups of 5-6 each. For the BRAFi PD study, an appropriate vehicle control (Klucel LF) or RG7204 at doses of 10 mpk or 30 mpk were administered twice a day for 3 days (FIG. 27A). For the MEKi PD study, an appropriate vehicle control or MEKi-973 at doses of 5 mpk and 10 mpk were administered orally once a day for 3 days (FIG. 27B). Flash frozen tumors harvested at end of study were homogenized and processed for RNA and/or protein. Taqman assays were set up using reagents from Applied Biosystems (ABI, Foster City, Calif.) and assayed using 7500 Real Time PCR machine and software from ABI. Primer-probe sets were designed with primers flanking a fluorogenic probe dual labeled with Reporter dye FAM and quencher dye TAMRA. ETBR transcript levels in the tumors were normalized against transcript levels of reference genes such as Hprt1 (hypoxanthine phosphoribosyltransferase 1) or GAPDH (glyceraldehyde 3 phosphate dehydrogenase) using primer and probe sets that were specific to the human homologs of these genes.

phosphor-ERK = assay: Phospho-ERK in melanoma cells, Western blot; assay type: cell-based, human; settings: IPC-298 cells (BRAF wild-type, RAS Q61L), 24 h
Method: (§2) Melanoma cell lines UACC-257X2.2, A2058, COLO 829, IPC-298 (ATCC) were treated with a BRAF inhibitor drug (“BRAFi”), specifically RG7204 at varying concentrations by adding the appropriate drug volume to cells in culture for 24 h on four-well dishes.
To test whether the increase in ETBR transcripts due to BRAFi treatment also results in any changes in ETBR total protein levels, Western blot experiments were performed on the same cell lines treated with BRAFi RG7204 as described above. For Western blotting, the following reagents were used: for detection of proteins: an anti-ETBR in-house generated monoclonal antibody 1H1.8.5, anti-Phospho-p44/42 MAPK (Erk1/2) (Thr202/Tyr204) antibody (9101, Cell Signaling Technology), anti-p44/42 MAPK (Erk1/2) antibody (9102, Cell Signaling Technology) and as controls, a rabbit polyclonal anti-GAPDH (glyceraldehyde-3-phosphate dehydrogenase) antibody (PA1-987; Affinity Bioreagents) and mouse monoclonal anti-β-Tubulin antibody (556321, BD Pharmingen). The results for UACC-257X2.2 are shown in FIG. 4B, the results for A2058 are shown in FIG. 8B, the results for COLO 829 are shown in FIG. 6B and the results for IPC-298 are shown in FIG. 10.

ETBR transcript [2] = assay: ETBR transcript level in melanoma cell lines, Taqman, normalized to RPL19; assay type: cell-based, human; settings: 24 h
Method: as §2
(§3) To determine the effect of BRAFi on ETBR and control ribosomal protein L19 (RPL19) transcript levels, the following experiments were performed. Cells treated with RG7204 for 24 h were harvested from plates by scraping and processed for total RNA using Qiashredder and RNeasy mini kits (79654, 74104 from Qiagen, Valencia, Calif.). Taqman assays were set up using reagents from Applied Biosystems (ABI, Foster City, Calif.) and assayed using 7500 Real Time PCR machine and software from ABI. Primer-probe sets were designed with primers flanking a fluorogenic probe dual labeled with Reporter dye FAM and quencher dye TAMRA.
(§4) Melanoma cell lines A2058, COLO 829, SK23-MEL and IPC-298 (ATCC) were treated with a MEK inhibitor drug (“MEKi-973” or “MEKi-623”), at varying concentrations (0 μM, 0.01 μM, 0.1 μM or 1 μM) by adding the appropriate drug volume to cells in culture for 24 h on four-well dishes.
as §3, with “MEKi” for “BRAFi”, “ETBR” for “ETBR and control ribosomal protein L19 (RPL19)”, “performed as described above in Example 3.” for “performed.”, “either MEKi-973” for “RG7204”

ETBR surface protein = assay: Surface ETBR protein in live melanoma cells, FACS; assay type: cell-based, human; settings: 24 h
Method: as §2
(§5) To determine whether the observed increases in total ETBR protein level due to BRAFi treatment also results in an increase of ETBR surface protein levels, a fluorescence-activated cell sorting (FACS) analysis was performed. Cells were harvested in PBS with 2.5 mmol/L EDTA and washed in PBS buffer containing 1% FBS. All subsequent steps were carried out at 4° C. Cells were incubated for 1 hour with 3 μg/mL anti ETBR antibody Hu5E9v1, followed by anti-human IgG fluorescent detection reagent (A11013; Invitrogen). Cells were then analyzed with a FACS Calibur flow cytometer (BD Biosciences). The results for UACC-257X2.2 are shown in FIG. 4C, the results for A2058 are shown in FIG. 8C, and the results for COLO 829 are shown in FIG. 6C.
as §4
as §5, with “MEKi” for “BRAFi”, “performed as described above.” for “performed.”, “Biosciences).” for “Biosciences). The results for UACC-257X2.2 are shown in FIG. 4C, the results for A2058 are shown in FIG. 8C, and the results for COLO 829 are shown in FIG. 6C.”

[3] = system: COLO 829 melanoma xenograft; assay: In vivo efficacy, subcutaneous melanoma xenograft, tumor volume / % TGI; parameters: species or system mice
Method: The average tumor volumes were determined from 10 animals per group. Tumor volumes were measured twice per week until study end. Tumor volumes were measured in two dimensions (length and width) using UltraCal IV calipers (Model 54 10 111, Fred V. Fowler Company; Newton, Mass.). The following formula was used with Excel, version 12.2.8 (Microsoft; Redmond, Wash.) to calculate tumor volume: Tumor Volume (mm3)=(length×width)×0.5
To analyze the repeated measurement of tumor volumes from the same animals over time, a mixed-modeling Linear Mixed Effects (LME) approach was used (Pinheiro et al. 2009). This approach can address both repeated measurements and a modest drop-out rate due to non-treatment-related termination of animals prior to study end. Cubic regression splines were used to fit a non-linear profile to the time courses of log 2 tumor volume at each dose level. These non-linear profiles were then related to dose within the mixed model. Tumor growth inhibition (TGI) as a percentage of vehicle was calculated as percent area under the fitted curve (AUC) per day in relation to the vehicle, using the following formula:
To get uncertainty intervals (UIs) for % TGI, the fitted curve and the fitted covariance matrix were used to generate a random sample as an approximation to the distribution of % TGI. The random sample is composed of 1000 simulated realizations of the fitted-mixed model, where the % TGI has been recalculated for each realization. Here, in the reported UI is the value for which 95% of the time, the recalculated values of % TGI will fall in this region given the fitted model. The 2.5 and 97.5 percentiles of the simulated distribution were used as the upper and lower UIs.
The COLO 829 xenograft model was chosen as representative of medium levels of ETBR expression, further increasing the stringency of the combination studies. Tumors were grown to an average size of approximately 200 mm^3, whereupon animals were randomized into groups of 9 each. An appropriate vehicle control (Klucel LF) or G00044364.1-12 (RG7204) at doses of 10 mpk or 30 mpk were administered orally twice a day for 21 days starting on day 0.

Phosphorylated erk = assay: PD study, phosphorylated erk in COLO 829 tumors, Western blot; assay type: in vivo, mice; settings: 30 mpk BRAFi RG7204
Method: as §1, with “ETBR transcript levels in the tumors were normalized against transcript levels of reference genes such as Hprt1 (hypoxanthine phosphoribosyltransferase 1) or GAPDH (glyceraldehyde 3 phosphate dehydrogenase) using primer and probe sets that were specific to the human homologs of these genes.” left out
Phosphorylated erk and total erk protein levels were evaluated in the tumors by western blotting using the following reagents: for detection of proteins: anti-Phospho-p44/42 MAPK (Erk1/2) (Thr202/Tyr204) antibody (9101, Cell Signaling Technology), anti-p44/42 MAPK (Erk1/2) antibody (9102, Cell Signaling Technology) and mouse monoclonal anti-β-Tubulin antibody (556321, BD Pharmingen) as control (FIG. 26).

CCCS(=O)(=O)Nc1ccc(F)c(C(=O)c2c[nH]c3ncc(-c4ccc(Cl)cc4)cc23)c1F [RG7204, propane-1-sulfonic acid {3-[5-(4-chlorophenyl)-1H-pyrrolo[2,3-b]pyridine-3-carbonyl]-2,4-difluoro-phenyl}-amide]
in vitro killing efficacy (A2058): > 20 µM | ETBR mRNA in tumors vs control vehicle (ETBR transcript [1]): induces ETBR mRNA in vivo | phosphor-ERK level (phosphor-ERK): appears to activate the levels of phosphor-ERK | ETBR transcript vs untreated control cells (ETBR transcript [2]; A2058 cells): appears to increase the ETBR transcripts | ETBR transcript vs untreated control cells (ETBR transcript [2]; COLO 829 cells): appears to increase the ETBR transcripts | ETBR transcript vs untreated control cells (ETBR transcript [2]; UACC-257X2.2 cells): appears to increase the ETBR transcripts | surface level of ETBR protein vs untreated control cells (ETBR surface protein; A2058 cells): appears to increase the surface levels of ETBR protein | surface level of ETBR protein vs untreated control cells (ETBR surface protein; COLO 829 cells): appears to increase the surface levels of ETBR protein | surface level of ETBR protein vs untreated control cells (ETBR surface protein; IPC-298 cells): appears to reduce ETBR levels | surface level of ETBR protein vs untreated control cells (ETBR surface protein; UACC-257X2.2 cells): appears to increase the surface levels of ETBR protein | % TGI Single Agent BRAFi vs. control ([3]; BRAFi Qdx21 10 mg/kg): 27% | % TGI Single Agent BRAFi vs. control ([3]; BRAFi Qdx21 30 mg/kg): 83% | Perk in tumors vs control (Phosphorylated erk): appears to inhibit Perk in vivo
